SMILES strings stand for the structures.

As usually defined, the IC50 is the point on the concentration scale where inhibition reaches its midpoint. A higher IC50 goes with lower potency.

This test relates to Plasmodium falciparum Dd2 asexual blood stage.
As to `C[C@H]1[C@@H](c2cccc(C(F)(F)F)c2)OC(=O)N1C(=O)NCc1cncc2ccccc12`, the IC50 was more than 5 µM. In turn, `CCCCOC(=O)Nc1cc2nc(C3CCCCC3)[nH]c2cc1N(CC)CC` showed an IC50 of 1.79 µM.

`O=C(NC(=O)N1CCCc2ccccc21)c1cccc(Cl)c1` showed a concentration for half-maximal inhibition (IC50) of more than 5 µM. As for `Cc1ccccc1NC(=O)Nc1cccc([N+](=O)[O-])c1`, the 50% inhibitory concentration (IC50) was more than 5 µM. Turning to `Cc1onc(-c2ccccc2)c1-c1ccc(S(N)(=O)=O)cc1`, the IC50 is more than 5 µM. The result for `O=C(Cc1ccccc1F)Nc1nc2ccccc2[nH]1` reads more than 5 µM. Turning to `O=[N+]([O-])c1cn2c(n1)OC[C@@H](OCc1ccc(OC(F)(F)F)cc1)C2`, the IC50 was more than 5 µM. Turning to `Cc1nc(N(C)C(=O)Cc2ccc(-c3ccccn3)cc2)sc1S(N)(=O)=O`, the IC50 was more than 5 µM. On to `C[N+]1(C)CCCC(OC(=O)C(O)(c2ccccc2)c2ccccc2)C1` (stereo not given), for which the IC50 was more than 5 µM.

`COCCn1cnc2c(=O)[nH]c(Nc3ccccc3)nc21` had a half-maximal inhibitory concentration (IC50) of more than 5 µM.

In turn, `CONC(=N)c1ccc(-c2ccc(-c3ccc(C(=N)NOC)cc3)o2)cc1` returned an IC50 of more than 5 µM. To `Nc1nnc(-c2ccc(Cl)cc2)s1` belongs more than 5 µM. As for `OC(Cn1cncn1)(Cn1cncn1)c1ccc(F)cc1F`, the IC50 is more than 5 µM. The compound `CC(N)C12CC3CC(CC(C3)C1)C2` (stereo not given) came in with an IC50 of more than 5 µM. For the compound `NCCCc1ccccc1C(=O)Nc1ncc([N+](=O)O)s1`, the IC50 was more than 5 µM. In turn, `CC[C@@]1(O)C(=O)OCc2c1cc1n(c2=O)Cc2cc3c(CN(C)C)c(O)ccc3nc2-1` came in with an IC50 of 4.12 µM. This lies in the single-digit micromolar range.

Compound `CCNC(=O)Nc1cn2c(-c3ncc(CC)cn3)cc(-c3cccnc3)cc2n1` showed an IC50 of more than 5 µM. The result for `Nc1nc(O)c2ncn(COCCO)c2n1` reads more than 5 µM. `CCc1ccccc1OCCN1CCCCCC1` returned an IC50 of more than 5 µM. Regarding `Cc1ncc([N+](=O)[O-])n1CC(C)O` (stereo not given), the IC50 is more than 5 µM.

`CCC(CC)[C@H](NC(C)=O)[C@@H]1[C@H](O)[C@@H](C(=O)O)C[C@H]1NC(=N)N` displayed an IC50 of more than 5 µM. `C[C@@]1(O)[C@H](O)[C@@H](CO)O[C@H]1n1ccc2c(N)ncnc21` registered an IC50 of more than 5 µM. To `NCc1ccc(S(N)(=O)=O)cc1` belongs more than 5 µM. Turning to `O=C1NC(=O)C(Br)=C1Br`, the IC50 is more than 5 µM. The result for `C[C@H]1CC[C@@]2(O)C(C)(C)[C@@H]3CC[C@@]2(C)[C@H]1C3` reads more than 5 µM; that for `Clc1ccc(COC(Cn2ccnc2)c2ccc(Cl)cc2Cl)c(Cl)c1` (stereo not given), more than 5 µM. The compound `CCn1cc(C(=O)O)c(=O)c2cc(F)c(N3CCNC(C)C3)c(F)c21` (stereo not given) had an IC50 of more than 5 µM.

In turn, `O=S(=O)(NCB(O)O)c1ccc(-c2nnn[nH]2)cc1C(F)(F)F` registered an IC50 of more than 5 µM.

Regarding `CC[C@H]1OC(=O)[C@H](C)[C@@H](O[C@H]2C[C@@](C)(OC)[C@@H](O)[C@H](C)O2)[C@H](C)[C@@H](O[C@@H]2O[C@H](C)C[C@H](N(C)C)[C@H]2O)[C@](C)(O)C[C@@H](C)C(=O)[C@H](C)[C@@H](O)[C@]1(C)O`, the IC50 is more than 5 µM. To `Oc1ccc(NCc2ccccc2OCc2ccccc2)cc1` belongs more than 5 µM. Turning to `O=C(NNC(=S)Nc1ccc(Cl)cc1)c1ccncc1`, the IC50 is more than 5 µM.

In the case of `O=C(Nc1[nH]c(=O)ncc1F)c1ccccc1`, the IC50 was more than 5 µM. Take `CNCC(=O)OCc1cccnc1N(C)C(=O)OC(C)[n+]1cnn(C[C@](O)(c2cc(F)ccc2F)[C@@H](C)c2nc(-c3ccc(C#N)cc3)cs2)c1` (stereo not given in full): the IC50 is more than 5 µM.

`O=C(O)c1ccc(-n2nc(-c3ccccc3O)nc2-c2ccccc2O)cc1` gave an IC50 of more than 5 µM. As for `COc1c(F)c(F)cc2c(=O)c(C(=O)O)cn(C3CC3)c12`, the IC50 is more than 5 µM. In the case of `Cc1onc(-c2ccccc2Cl)c1C(=O)N[C@@H]1C(=O)N2[C@@H]1SC(C)(C)[C@@H]2C(=O)O`, the IC50 is more than 5 µM.

The compound `CCCCSc1nc(N)c2[nH]c(=O)c(=O)n(Cc3ccccc3)c2n1` returned an IC50 of more than 5 µM. For the compound `Nc1nc(-c2ccccc2)nc2[nH]nc(Nc3ccc(C(F)(F)F)cc3)c12`, the half-inhibitory concentration (IC50) is 4.1 µM.

The compound `CCCCCCC1c2ccc(O)cc2Oc2cc(O)ccc21` gave an IC50 of more than 5 µM. Turning to `O=C(O)C[C@H]1CC[C@H](c2ccc(-c3ccc(Nc4ccc(C(F)(F)F)nc4)cn3)cc2)CC1`, the IC50 was more than 5 µM. To `CCNC(=O)Nc1cc(-c2ccccc2)c(-c2cncc(C(=O)O)c2)cn1` belongs more than 5 µM. As to `COc1ccc2c(c1OC)C(=O)OC2C1c2c(cc3c(c2OC)OCO3)CCN1C` (stereo not given), the IC50 is more than 5 µM. Compound `Cc1nc(-c2ccc(C3N(C)c4ccc(F)cc4C(=O)N3c3ccccc3)s2)cs1` (stereo not given) gave an IC50 of more than 5 µM. `CCC[C@H](NC(=O)[C@@H]1[C@H]2CCC[C@H]2CN1C(=O)[C@@H](NC(=O)[C@@H](NC(=O)c1cnccn1)C1CCCCC1)C(C)(C)C)C(=O)C(=O)NC1CC1`: the IC50 was more than 5 µM.

On to `O=C(CP(=O)(O)O)NCCc1cccc(Oc2ccccc2)c1`, for which the IC50 was more than 5 µM. As for `O=C(NCc1ccccc1Cl)c1cnc2ccccc2n1`, the IC50 is more than 5 µM.

As for `COc1ccc(SCC(=O)N2c3ccccc3Sc3ccccc32)cc1`, the IC50 was more than 5 µM. On to `O=S(=O)(Nc1ccc(O)cc1)c1cccc2cccnc12`, for which the IC50 was more than 5 µM.

Compound `Nc1ccc(-c2nc3cc(C(F)(F)F)ccc3n2C23CC4CC(CC(C4)C2)C3)cc1` gave an IC50 of more than 5 µM. Take `O=C(CCc1ccc2c(c1)OCO2)NCc1ccc(-c2ccccc2F)cc1`: the IC50 was more than 5 µM. To `Cc1c[nH]c(=O)nc1NCc1ccccc1` belongs more than 5 µM; to `COc1ccc(NC(=O)CC2Sc3ncnn3C2=O)cc1` (stereo not given), more than 5 µM.

As for `O=C(c1ccc(F)cc1)N1CCN2C(=O)c3ccccc3C12c1ccccc1` (stereo not given), the IC50 was more than 5 µM. As for `FC(F)(F)c1cc(C(F)(F)F)c2ccc3nc(-c4nnco4)cn3c2n1`, the IC50 was more than 5 µM. `O=C(/C=C\n1cnc(-c2cc(C(F)(F)F)cc(C(F)(F)F)c2)n1)NNc1ccccn1` showed a concentration for half-maximal inhibition (IC50) of more than 5 µM. Compound `C=CCc1cc(Cc2cnc(N)nc2N)cc(OC)c1O` came in with an IC50 of more than 5 µM. As for `CC[C@H](CO)Nc1nc(NCc2ccccc2)c2ncn(C(C)C)c2n1`, the IC50 is more than 5 µM. On to `CCc1cc(Cc2cnc(N)nc2N)cc2c1N(C)CCC2C` (stereo not given), for which the concentration for half-maximal inhibition (IC50) was more than 5 µM. The result for `NC[C@H]1O[C@H](O[C@H]2[C@H](O)[C@@H](O[C@H]3O[C@H](CO)[C@@H](O)[C@H](N)[C@H]3O)[C@H](N)C[C@@H]2N)[C@H](N)C[C@@H]1O` reads more than 5 µM; that for `Clc1cc2nc(C3CCNCC3)n(Cc3ccc(CNCCc4cnc[nH]4)cc3)c2cc1Cl`, 2.41 µM. The result for `O=C(N[C@H](Cc1cccc2ccccc12)C(=O)NCCc1c[nH]cn1)C1Cc2ccccc2C1` reads more than 5 µM; that for `CC1=C(/C=C/C(C)=C/C=C/C(C)=C/C(=O)Nc2ccc(O)cc2)C(C)(C)CCC1`, more than 5 µM; that for `Nc1nc(-c2ccccc2)nc2c1ncn2[C@@H]1O[C@H](COS(=O)(=O)NC(=O)c2ccccc2O)[C@@H](O)[C@H]1O`, more than 5 µM. On to `O=C(NC(=O)N1CCCc2ccccc21)c1ccc(Cl)cc1Cl`, for which the IC50 was more than 5 µM.

Compound `Cn1c2ccccc2c(=O)c2c(O)cccc21` yielded an IC50 of more than 5 µM. `O=C(c1nc2c(C(F)(F)F)cc(C3CC3)cn2c1Cl)N1CCN([C@H]2CC[C@H](O)CC2)C(=O)C1` showed an IC50 of more than 5 µM. `CC(Cc1ccccc1)C(=O)Nc1ccc(Cl)cc1C(=O)O` (stereo not given) displayed an IC50 of more than 5 µM.

For the compound `Cc1c(F)cccc1NC(=O)Nc1ccc(Cl)c(S(=O)(=O)[C@H]2CCCNC2)c1O`, the IC50 was more than 5 µM.

On to `COc1cc(NC(=O)CN2C(=O)NC(c3ccccc3)(c3ccccc3)C2=O)cc(OC)c1`, for which the IC50 was more than 5 µM. Regarding `N#Cc1cc([N+](=O)[O-])ccc1Oc1ccccc1Cl`, the IC50 is more than 5 µM.

In turn, `C/C(=N\NC(=O)C1CC1c1ccccc1)c1ccc(NC(=O)c2ccco2)cc1` (stereo not given) had an IC50 of more than 5 µM.

Take `Cc1cc(NS(=O)(=O)c2ccc(-c3ccc(F)cc3F)cc2)no1`: the IC50 is more than 5 µM. To `O=C(CC1Sc2ncnn2C1=O)Nc1ccc(Br)cc1` (stereo not given) belongs more than 5 µM; to `NC(=O)C(c1ccccc1)(c1ccccc1)[C@H]1CCCN(CCc2ccc3c(c2)CCO3)C1`, more than 5 µM; to `O=C(Nc1ncc(Cc2cccc3ccccc23)s1)C1CCCCC1`, more than 5 µM.

As for `O=[N+]([O-])/C(Br)=C/c1ccc(Br)o1`, the IC50 was more than 5 µM. `Nc1nc(O)ncc1F` had an IC50 of more than 5 µM.

`N[C@H](CCC(=O)N[C@@H](Cc1c[nH]c2ccccc12)C(=O)O)C(=O)O`: the IC50 is more than 5 µM. `OCCC#Cc1nc(-c2ccc(F)cc2)c(-c2ccncc2)n1CCCc1ccccc1`: the IC50 is more than 5 µM. Compound `COc1ccc(C)cc1NC(=O)c1ccc(S(=O)(=O)N2CCCCC2)cc1` came in with a half-maximal inhibitory concentration (IC50) of more than 5 µM.

In turn, `C[C@@H](NC(=O)c1ccccc1-c1ccccc1)B(O)O` gave a concentration for half-maximal inhibition (IC50) of more than 5 µM.

`CCCCc1ccc(-c2nc(C)c(C(=O)OC)s2)cc1` registered an IC50 of more than 5 µM. In turn, `CC#C[C@]1(O)CC[C@H]2[C@@H]3CCC4=CC(=O)CCC4=C3[C@@H](c3ccc(N(C)C)cc3)C[C@@]21C` had an IC50 of more than 5 µM. On to `CCOC(=O)/C=C/[C@H](C[C@@H]1CCNC1=O)NC(=O)[C@H](CC)n1cccc(NC(=O)c2cc(C)on2)c1=O`, for which the IC50 is more than 5 µM. Consider `OC[C@@H]1CC[C@H](n2cnc3c(O)ncnc32)O1`, for which the concentration for half-maximal inhibition (IC50) was more than 5 µM. The result for `Nc1nc2c(ncn2/C=C2/CC2(CO)CO)c(=O)[nH]1` reads more than 5 µM; that for `Nc1nc(C(F)(F)F)cc2c1[nH]c(=O)n2Cc1ccccc1`, more than 5 µM; that for `NC(=O)c1cnccn1`, more than 5 µM. As to `COc1cc(Cc2cnc(N)nc2N)c2c(c1OC)OC(C1CC1)C=C2` (stereo not given), the 50% inhibitory concentration (IC50) is more than 5 µM.

`NC(=O)c1nccn([C@@H]2O[C@H](CO)[C@@H](O)[C@H]2O)c1=O`: the half-maximal inhibitory concentration (IC50) is more than 5 µM.

For the origin of these results see the supplement of paper PMC7801607.
